We go through five compounds from patent US5449672A, “Alkylaminoalkylpyrrolidinylthiocarbapenem derivatives” (Banyu Pharmaceutical Co., Ltd., priority 1991, dated 1995).

The test system of data set [1] is gram positive bacteria and gram negative bacteria. Particulars: literature, in words; cited from earlier work.
The next data set relates to P. aeruginosa MB5002. Put plainly: Minimum inhibitory concentration (MIC), agar plate dilution method, P. aeruginosa MB5002. Particulars: Pseudomonas aeruginosa, read-out: Minimum Inhibitory Concentration (MIC). Format: cell-based. On the procedure:
(§1) One platinum loopful of each test microorganism incubated overnight in Mueller Hinton broth, was inoculated to Mueller Hinton agar (inoculum size: 10^6 CFU/ml). Such culture media contained antibacterial agents in various concentrations. After incubation at 37° C. for 16 hours, the minimum inhibitory concentrations (MIC: μg/ml) were measured. Further, the DHP-I susceptibility was quantitatively analyzed by the method by Kropp et al. (Antimicrob. Agents Chemother., vol. 22, p. 62-70 (1982)), whereby the smaller the numerical value representing the ratio to imipenem (=1.0), the higher the stability.
(§2) The minimum inhibitory concentrations and the DHP-I susceptibility of the compounds of the present invention were compared with imipenem and the compound of REFERENCE EXAMPLE 4.

A further data set has as its system P. aeruginosa MB5178. The experiment in a line: Minimum inhibitory concentration (MIC), agar plate dilution method, P. aeruginosa MB5178. Format: cell-based. Particulars: Pseudomonas aeruginosa, read-out: Minimum Inhibitory Concentration (MIC). On the procedure: as §1, §2
A further data set relates to DHP-I. Conditions: in vivo; human kidney for imipenem; cited from earlier work.
The conditions of data set [2]: due to the decomposition products; cited from earlier work.
The next data set has as its system β-lactamase. Conditions: literature, in words; cited from earlier work.
Data set [3] relates to Methicillin resistant Staphylococcus aureus and resistant Pseudomonas aeruginosa. Conditions: prior-art compounds; highly methicillin resistant S. aureus and resistant P. aeruginosa; cited from earlier work.
Data set [4] concerns DHP-I (renal dehydropeptidase I). The experiment in a line: DHP-I susceptibility, method by Kropp et al. The class given is in vitro ADME. Conditions: ratio to imipenem (=1.0); the smaller the value, the higher the stability. On the procedure:
as §1, §2

For data set [5] the following is noted: cited from earlier work.
For data set [6] the following is noted: in words; cited from earlier work.
[7] abbreviates: P. aeruginosa MB5002, Mueller Hinton agar, inoculum 10^6 CFU/ml, 37° C., 16 hours.
[8] abbreviates: P. aeruginosa MB5178, Mueller Hinton agar, inoculum 10^6 CFU/ml, 37° C., 16 hours.

Converted amounts (≈) assume the structure as drawn. Read-outs that look alike come from different tables or passages of the source.

In the case of `C[C@@H](O)[C@H]1C(=O)N2C(C(=O)O)=C(SCCN=CN)C[C@H]12` [Imipenem, (5R,6S,8R)-3-[[2-(formimidoylamino)ethyl]thio]-6-(1-hydroxyethyl)-7-oxo-1-azabicyclo[3.2.0]hept-2-en-2-carboxylic acid monohydrate], in [1], the antibacterial activities entry is “antibacterial activities of an equal or higher level than thienamycin against various types of bacteria”. In addition, the MIC in the data set with P. aeruginosa MB5002 (MB5002, 16 h) was 1.56 µg/mL; with P. aeruginosa MB5178 (MB5178, 16 h), 25 µg/mL. Moreover, the “decomposition by renal dehydropeptidase I (DHP-I)” value in the data set on DHP-I is “likely to be decomposed by DHP-I in the human kidney”. In [2], the “toxicity against the kidney” value is “presents toxicity against the kidney due to the decomposition products”. Also, the β-lactamase resistance result in the data set on β-lactamase is given as “has β-lactamase resistance”. In addition, the “treating effects / antibacterial activities against resistant bacteria” value in data set [3] is “does not show adequate treating effects against these resistant bacteria”. Further, in [4], the DHP-I susceptibility turned out to be 1.0. Further, the “stability in the solid form or in an aqueous solution” value in data set [5] (relative to thienamycin) is “remarkably improved over thienamycin”.
Take `CC(=O)NC[C@@H]1C[C@H](SC2=C(C(=O)O)N3C(=O)[C@H]([C@@H](C)O)[C@H]3[C@H]2C)CN1` [compound 1, (1R,5S,6S)-2-[(2S,4S)-2-(Acetylaminomethyl)pyrrolidin-4-ylthio]-6-[(R)-1-hydroxyethyl]-1-methyl-1-carbapen-2-em-3-carboxylic Acid]: the figures for the MIC in the data set on P. aeruginosa MB5002 (setting [7]) and with P. aeruginosa MB5178 (setting [8]) were 6.25 µg/mL (≈ 16.3 µM) and 12.5 µg/mL (≈ 32.6 µM), respectively. In addition, the DHP-I susceptibility in data set [4] amounted to 0.7.
On the same counts, the results for `CNCCC[C@@H]1C[C@H](SC2=C(C(=O)O)N3C(=O)[C@H]([C@@H](C)O)[C@H]3[C@H]2C)CN1.Cl` [Example 3, (1R,5S,6S)-6-[(R)-1-Hydroxyethyl]-1-methyl-2-[(2R,4S)-2-[3-(methylamino)propyl]pyrrolidin-4-ylthio]-1-carbapen-2-em-3-carboxylic acid Monohydrochloride] are 0.78 µg/mL, 3.13 µg/mL and 0.07.
As for `C[C@@H](O)[C@H]1C(=O)N2C(C(=O)O)=C(SCCN)C[C@H]12` [Thienamycin], the antibacterial activities result in data set [1] was “strong antibacterial activities over a wide range against gram positive bacteria and gram negative bacteria”. Besides, the “decomposition by renal dehydropeptidase I (DHP-I)” value with DHP-I is recorded as “likely to be decomposed by a certain enzyme in vivo such as renal dehydropeptidase I”. For the same compound, the “recovery rate in the urine” value in [6] was “low”. Moreover, the chemical stability entry in data set [5] (literature, in words) is reported as “chemically unstable”.
Regarding `CNCC[C@@H]1C[C@H](SC2=C(C(=O)O)N3C(=O)[C@H]([C@@H](C)O)[C@H]3[C@H]2C)CN1` [Example 1, (1R,5S,6S)-6-[(R)-1-Hydroxyethyl]-1-methyl-2-[(2R,4S)-2-[2-(methylamino)ethyl]pyrrolidin-4-ylthio]-1-carbapen-2-em-3-carboxylic Acid], the MIC in the data set on P. aeruginosa MB5002 (setting [7]) was determined as 0.78 µg/mL (≈ 2.11 µM); in the data set on P. aeruginosa MB5178 (setting [8]), 3.13 µg/mL (≈ 8.47 µM). Moreover, the DHP-I susceptibility in data set [4] is given as below 0.05.
